Assays:
[1] = test system: B16 cell line; experiment: Apoptosis by DNA flow cytometric analysis (propidium iodide); type: cell-based, murine; conditions: propidium iodide flow cytometry
Procedure: Apoptosis was assessed by DNA flow cytometric analysis. At each concentration of SCV-07, adherent cells were detached from the plates by trypsinization, pooled with the floating cells and fixed with 50% acetone:methanol 1:4 in PBS. The cells were suspended (1×10^6/ml) in PBS containing 50 μg/ml of propidium iodide (PI) and 100 KU/ml of RNase and incubated in the dark at room temperature for 30 min. The DNA content per cell was evaluated by PI fluorescence measured on a linear scale using a FACScan flow cytometer (Becton & Dickinson, San Jose, Calif.). Apoptotic cells show a diminished staining, in the red fluorescence channel, below the G0/G1 population of normal diploid cells, and are represented by a broad hypodiploid peak due to DNA fragmentation following apoptotic events. This is easily distinguishable from the narrow peak of cells with diploid DNA content. The fraction of apoptotic cells was therefore calculated by integrating the pre-G1 peak.

[2] = test system: B16 cell line; experiment: In vitro cell sensitivity: cell proliferation and viability by trypan blue dye exclusion; type: cell-based, murine
Procedure: In vitro cell sensitivity studies were performed on a B16 cell line. Subconfluent melanoma cells were harvested, suspended in complete medium and seeded into 24-well plates (10^5 cells in a final volume of 2 ml/well). The cells were treated in triplicate wells for 24, 48 or 72 hr of culture with graded concentrations of SCV-07 ranging from 0.1 to 100 μg/ml. Cell proliferation and viability were determined by the trypan blue dye exclusion method by manually counting the cells with a hemocytometer.

[3] = test system: bone marrow cells; conditions: cited from earlier work

N[C@H](CCC(=O)N[C@@H](Cc1c[nH]c2ccccc12)C(=O)O)C(=O)O [SCV-07, γ-D-glutamyl-L-tryptophan]
percentage of apoptotic cell death [1]: could not evidence any significant effect
effect on cell growth by direct cell counts ([2]; 24 and 48 hrs of culture, 0.1 to 100 μg/ml): dose-dependent inhibitory effect on cell growth
effect on number of viable cells ([2]; higher concentration (100 μg/ml)): toxic effects with a dramatic decrease in the number of viable cells
effect on cell growth ([2]; low concentration): substantially cytostatic
expression of Thy-1.2 [3]: stimulates
